Results on four molecules are retold here after patent publication US6540996B1, “Compound screening methods” (priority 1999, dated 2003).

In experiment [1] the test system is C. elegans. Kind of experiment: plate (drop) assay: nematodes fed E. coli lawn pre-loaded with the compound. The class given is in vivo. The protocol:
(§1) Using two kinds of assays, the optimal concentration of compounds that inhibit the activity SERCA has been determined. The first assay is designated the drop or plate assay in which the nematodes are fed E. coli strains pre-loaded with the compound. In a second assay, the compound is administrated to the worm in liquid culture.
A standard plate drop assay is performed according to the following protocol. 4 ml NGM agar (see “The nematode C. elegans” Ed. by William B. Wood and the Community of C. elegans Researchers, CSHL Press, 1988, pg589) is into 3 cm plates and seeded with approximately 5 μl of an E. coli overnight culture and grown preferably for one week at room temperature. Approximately 10 μl of test compound dissolved in DMSO or other suitable solvent is pipetted onto the bacterial lawn so that the lawn is covered completely. After overnight soaking in or compound, one C. elegans (L4 stage) per plate is put onto the bacterial lawn. Plates are incubated at 21° C. and checked after some hours.

In experiment [2] the test system is C. elegans. Kind of experiment: liquid assay: compound administered to the worm in liquid culture. The class given is in vivo.
Description: as §1

For experiment [3], the system named is C. elegans wild-type worms and mutant strain unc-31. Kind of experiment: effect on pharynx pumping behaviour. The class given is in vivo. The protocol: The effect of thapsigargin on pharynx pumping behaviour was also determined. In wild-type worms, all animals stopped pumping after 10 minutes.
In experiment [4] the test system is C. elegans strains unc-31 and srf-3. Kind of experiment: production of progeny after thapsigargin treatment in different C. elegans strains. The class given is in vivo. As to the method: The effect of thapsigargin on the production of progeny was determined for a number of different C. elegans strains. The numbers of progeny produced following thapsigargin treatment was counted for an average of 15 animals, the results are summarised as follows: […]

Experiment [5] concerns C. elegans strain UG530 (harboring plasmid pGK28). Kind of experiment: thapsigargin sensitivity of worms carrying the pGK28 (Phe259Val SERCA) transgene. The class given is in vivo. Particulars: for stage reached by progeny on thapsigargin: 10 μl drops of 5 to 0.05 mM thapsigargin in DMSO, 5 days. As to the method:
FIG. 3 illustrates the growth of C. elegans strain UG530 (strain harboring plasmid pGK28) on different concentrations of thapsigargin. The stage of the progeny was determined 5 days after adults were put on the plates. […] These were differentiated based on a GFP marker also present on this transgene.
The effect of thapsigargin on worms carrying a pGK28 transgene was measured in the following way: 10 μl of thapsigargin dissolved in DMSO (5, 2.5, 1, 0.5, 0.25, 0.1, and 0.05 mM respectively) was added onto a drop of E. coli strain OP50cs2 in 12-well plates. The wells with compounds were placed at 10 C. overnight, after which […] young adults were added to the wells. The pharynx pumping rate and movement behaviour was scored for the ten worms after 10 minutes and after one hour (short term effect). Furthermore the wells were scored for protruding vulva and rectum, production of progeny (few eggs in body) after one day (mid-term-effects), and for progeny after four days (long term effect)

In the next experiment the test system is SERCA Phe256Val. The note with it: substitution Phe256Val in hamsters (Yu et al., 1999); cited from earlier work.
The mark [6] stands for this setting: mutant strain unc-31, 1 mM thapsigargin.

Take `C/C=C(/C)C(=O)O[C@H]1C(C)=C2[C@H]([C@@H]1OC(=O)CCCCC)[C@@](C)(OC(C)=O)C[C@H](OC(=O)CCC)[C@@]1(O)[C@H]2OC(=O)[C@@]1(C)O` [Thapsigargicin]: the brood size result in the experiment on C. elegans [1] (lower concentrations 3 μM and 1.5 μM) was “slightly reduced brood size”. In addition, the “phenotype of worms and progeny” value in the experiment on C. elegans [2] (1000 μM, 250 μM, 62.5 μM and 16 μM) is “small worms with slow and loopy movement, a protruding vulva, and no progeny (or no progeny that grows up)”. In the experiment with C. elegans [2] (lower concentration 10 μM), the growth and progeny result was “delayed growth and reduced progeny”.

Regarding `C/C=C(/C)C(=O)O[C@H]1C(C)=C2[C@H]([C@@H]1OC(=O)CCCCCCC)[C@@](C)(OC(C)=O)C[C@H](OC(=O)CCC)[C@@]1(O)[C@H]2OC(=O)[C@@]1(C)O` [thapsigargin], in experiment [3] (setting [6]), the “pumping speed after restart” value is listed as “one third of normal speed”, the restart of pumping entry is listed as “some start again after half an hour” and the “time after which all worms stopped pumping” value amounted to 10 min. Further, the “time after which all animals stopped pumping” value in experiment [3] (wild-type worms) turned out to be 10 min. For the same molecule, in experiment [4] (strain srf-3, 1 mM thapsigargin, average of 15 animals (control 50)), the “number of progeny produced” value is on record as 18,3. Also, the “number of progeny produced” value in experiment [4] (strain unc-31, 0.5 mM thapsigargin, average of 15 animals (control 132)) came out at 35. In addition, in experiment [4] (strain unc-31, 1 mM thapsigargin, average of 15 animals (control 132)), the “number of progeny produced” value is given as 5,6. Also, in experiment [5] (GFP-animals harboring pGK28 (Phe259Val SERCA)), the “stage reached by progeny on thapsigargin” value is given as “grew up to adult or L4”. In experiment [5] (nematodes harboring the Phe259Val SERCA mutant compared with wild-type), the “amount of progeny on thapsigargin” value is “slightly more progeny than wild-type”. The “stage reached by progeny on thapsigargin” value in experiment [5] (non-GFP animals (not harboring the mutated SERCA)) was “arrested at L1 and L2 and never grew up further than L3”. Further, in experiment [5] (strain UG530 (harboring pGK28) treated with thapsigargin), the “protruding vulva and rectum-phenotype” value is reported as “not or were only occasionally observed”. The “protruding vulva and rectum-phenotype” value in experiment [5] (wild-type nematodes treated with thapsigargin) was “very often observed”. In addition, in the experiment with C. elegans [1] (5 μM, 2.5 μM and 1.25 μM), the “appearance and movement of the worms” value was “pale and thin and have a slow and irregular movement, with an increased amplitude”; the brood size result is given as “very small”; the “gonad, eggs and vulva” value is “defective gonad with only very few eggs, and a protruding vulva”; the “plate drop response, backing, pumping, constipation” value was “No plate drop response is observed, and the worms show poor backing, reduced pumping and strong constipation”. In the experiment on C. elegans [1] (5 μM, 2.5 μM and 1.25 μM), the rectum result is recorded as “Some worms also have a protruding rectum”; the “restart of pharynx pumping” value was “Within an hour the worms restart pumping, although at a low level”; the “time until the nematode stops pharynx pumping” value is on record as at most 10 min. Moreover, in the experiment on C. elegans [1] (5 μM, 2.5 μM and 1.25 μM, after four days), the “stage reached by progeny” value is “Progeny reaches L2 stage only after four days”. Moreover, the brood size result with C. elegans [1] (lower concentrations 0.5 μM, 0.25 μM, 0.125 μM) is “reduced brood size”. For the same molecule, in the experiment with SERCA Phe256Val, the “resistance to thapsigargin inhibition” value is reported as 40 fold. Also, in the experiment on C. elegans [2] (100, 50 and 20 μM), the “size and movement of the worms” value is “small worms which show slow and loopy movement”; the vulva and progeny entry was “protruding vulva, and no progeny (or no progeny that grows up)”. In the experiment with C. elegans [2] (lower concentrations 10 μM and 5 μM), the progeny and growth result is “reduced number of progeny and delayed growth”.

Regarding `O=C1C=CC(=O)C=C1` [1,4-benzoquinone], the “observable effect at the highest concentration tested” value with C. elegans [1] (100 mM drop, 500 μM end concentration) is “did not result in a clear observable effect”.

`CC(C)(C)c1cc(O)c(C(C)(C)C)cc1O` [2,5-di-tert butylhydroquinone]: the “phenotype of the worms” value in the experiment on C. elegans [1] (500 μM) is “pale, starved, thin worms with slow movement, defective gonad, constipated and reduced brood size”. For the same molecule, in the experiment on C. elegans [2] (1 mM), the “phenotype of worms and progeny” value was “progeny exhibiting delayed growth and the worms be observed to be thinner”.
